In article PMC9738107, “Targeting of the ELR+CXCL/CXCR1/2 Pathway Is a Relevant Strategy for the Treatment of Paediatric Medulloblastomas” (Cells, 2022):

Assays:
Assay type in all cases: cell-based, human
[1] = test system: Daoy, ONS-76, HD-MB03, and D341Med wild-type cells; assay: Cell proliferation assay (cell counting); settings: 1 µM C29, pre-incubation prior to cell seeding, all tested cell lines
Method: To confirm the efficacy of C29 on various parameters of cancer cell aggressiveness, we first performed cell proliferation assays at longer time points.
Figure 4 C29 reduces proliferation, migration, and invasion of naïve MB cells. (A) Proliferation of Daoy, ONS-76, HD-MB03, and D341Med wild-type cells after treatment with 1 μM C29 or the control (DMSO), n = 3. (B) Clonogenic assay on Daoy (n = 4), ONS-76 (n = 3) and HD -MB03 (n = 5) cells after treatment with control (DMSO) or C29 (1 μM or 2.5 μM). Scale = 500 μm. (C) Cell migration through the Boyden chamber of Daoy and ONS-76 cells specifically attracted by 200 ng/mL CXCL8. Results are expressed as percentage of control (DMSO) (n = 3). […] Results are expressed as percentage of day 0, n = 4. […]
1500 Daoy, ONS ‐76, HD ‐MB03 or D341 Med cells were sown in triplicate in plates with six wells and the cells were counted daily for 8 days using a Coulter counter (Ville‐ pinte). The relative number of cells (compared to day 1) was determined daily. […]
Y = Y0 * exp(k * X) (Y= Cell number at day X; Y0= Cell number at day 0 (graphically calculated); X= Day following cell plating (cells plated at X0=0); k= Exponential growth constant rate. Doubling times were compared. […]
were seeded in 6‐well plates. […] Cell death was detected by PE chan‐ nel using FACS Cytoflex (Beckman) immediately after labelling the cells with 1ug/ml pro‐ pidium iodide (Miltenyi Biotec). […]

Daoy cells = assay: CXCL8-induced migration in Boyden chamber; settings: 1 µM, 200 ng/mL CXCL8
Method: (§1) Figure 4 C29 reduces proliferation, migration, and invasion of naïve MB cells. (A) Proliferation of Daoy, ONS-76, HD-MB03, and D341Med wild-type cells after treatment with 1 μM C29 or the control (DMSO), n = 3. (B) Clonogenic assay on Daoy (n = 4), ONS-76 (n = 3) and HD -MB03 (n = 5) cells after treatment with control (DMSO) or C29 (1 μM or 2.5 μM). Scale = 500 μm. (C) Cell migration through the Boyden chamber of Daoy and ONS-76 cells specifically attracted by 200 ng/mL CXCL8. Results are expressed as percentage of control (DMSO) (n = 3). Scale = 1000 μm. (D) Spheroid invasion using 3D culture cell assays on Daoy (n = 4) and ONS-76 cells (n = 3) treated with control (DMSO) or C29 at a concentration of 1 μM on day 0, 1, and 2. Results are expressed as percentage of day 0, n = 4. Scale = 500 μm. Statistics were performed using Student t-test for 2 comparisons only or ANOVA test for multiple comparisons. * p < 0.05, ** p < 0.01, *** p < 0.001. […]
(§2) each month by using PlasmoTest Kit (#10L07‐MM, InvivoGen, Toulouse, France). Daoy and ONS‐76 belong to the Shh genetic subgroup, D341‐Med and HD‐MB03 to group 3. […]
(§3) (1, 2∙5, 5μM) for 48 hours. […]
(§4) Data were presented with the percentage of cell death after subtracting the percentage of untreated and unlabelled dead cells.
(§5) Migration in Boyden chambers
(§6) The cells were deprived of serum overnight. […] Cells were counted using ImageJ software (NIH). […]

ONS-76 cells = assay: CXCL8-induced migration in Boyden chamber; settings: ONS-76, 1 µM, 200 ng/mL CXCL8
Method: as §1, §2, §3, §4, §5, §6

HR1 cells = assay: Clonogenic assay
Method: Figure 8 C29 is efficient on radioresistant MB cell lines. (A) Cell death after 48 h of treatment with control (DMSO, CT) or C29 1, 2.5, or 5 µM on radiation-resistant cells (RR) and normal cells (N), n = 3. Statistics were performed using the one-way method ANOVA. * p < 0.05, ** p < 0.01, *** p < 0.001. For this figure, DR1 = D1, DR2 = D2, HR1 = H1, HR2 = H2, and C8D1A = C8. (B) Proliferation of DR1/DR2 (A) and HR1/HR2 (B) radio-resistant cells after 1 µM C29 treatment or control (DMSO), n = 3. (C) Clonogenic assay on DR1, DR2 (n = 3) and HR1, HR2 (n = 3) cells after treatment with control (DMSO) or C29 (1 µM or 2.5 µM). (D) Cell migration through the Boyden chamber of DR1 and DR2 cells specifically attracted by 200 ng/mL CXCL8. Cells were treated with control (DMSO) or C29 (1 and 2.5 µM). Results are expressed as percentage of control (n = 3). Scale = 1000 μm. Statistics were performed using Student t-test for 2 comparisons only or ANOVA test for multiple comparisons. * p < 0.05, ** p < 0.01, *** p < 0.001. […]
each month by using PlasmoTest Kit (#10L07‐MM, InvivoGen, Toulouse, France). […]
150 Daoy/DR1/DR2/ ONS ‐ 76 and 300 HD ‐ MB03/HR1/HR2 cells were seeded in trip‐ licate in 6‐well plates in the presence or absence of treatment (1 or 2∙5μM MCK140 or DMSO as control). […] The number of clones was quantified using ImageJ software. […]

SMILES: O=C(Nc1cccc(Cl)c1)Nc1nc2ccc([N+](=O)[O-])cc2s1 [C29, 1-(3-chlorophenyl)-3-(6-nitrobenzo[d]thiazol-2-yl) urea]
- Proliferation [1]: completely inhibited proliferation
- CXCL8-induced migration (Daoy cells): blocked CXCL8-induced migration
- CXCL8-induced migration (ONS-76 cells): blocked CXCL8-induced migration
- Clone formation (HR1 cells; HR1, 1 µM): reduced the number of clones
- Clone formation (HR1 cells; HR1, 2.5 µM): extinguished them
